Measured values published in patent US7097860B2, “Method and composition for treatment of inflammatory and inflammation-related disorders” (priority 2001, dated 2006).

Tests used:
[1] = test system: monkeys; conditions: monkeys from six months old, double the normal dose; cited from earlier work
[2] = test system: inflammatory disorders; assay: Magnesium sulfate in distilled water by intraperitoneal injection in a cow; format: in vivo; conditions: approximately 40 grams, cow of 500 kg
Description: After several years of using magnesium salts, the dose was reduced to an average dose of 3–20 grams for a 500 kg cow to get the same therapeutic effect. Therefore, the intraperitoneal administration, compared to other methods of drug administration, is a safe method because it avoids the toxic side effects through first-pass hepatic metabolism which permits the organism to create the abundance of magnesium used for recovery and healing. In fact, the administered dose can be higher than the traditional toxic level doses.

[3] = test system: cow; assay: Solution / magnesium in complicated cases with intoxication; format: in vivo
Protocol: For example, during calving of weak and strong contractions of the uterus, atony of the rumen, reticulum and abamasum, colic and constipation. In fact, after administration of the solution, the effect can be seen even in complicated cases when intoxication takes place, the temperature of the body is increased, and there is loss of appetite. In this situation, the cow starts to ruminate and the general condition improves in 10 to 15 minutes after administration of the solution.

[4] = powder; cited from earlier work
[5] = test system: rats; conditions: reproduction studies in rats; cited from earlier work
[6] = test system: rabbits; conditions: reproduction studies in rabbits; cited from earlier work
[7] = test system: rats; conditions: up to 600 mg/kg IV, single dose; cited from earlier work
[8] = test system: parturient paresis in cows (milk fever), ketosis (acetonomia), and paraplegia gravidarum; assay: Methenamine along with magnesium salts in parturient paresis, ketosis and paraplegia gravidarum; format: in vivo
Description: Methenamine breaks down to formaldehyde and ammonia in areas of inflammation where formaldehyde acts as anti-inflammatory and bactericidal agent. Methenamine also increases membrane permeability, which helps to eliminate antibacterial toxic material from the body. […] After the fifteen minutes of administration, the condition of cows that had parturient paresis (milk fever), ketosis (acetonomia) started to improve and the cows began rumination again.

[9] = test system: Dogs; conditions: up to 600 mg/kg IV, single dose; cited from earlier work
[10] = after administration of magnesium

SMILES: C1N2CN3CN1CN(C2)C3 [Methenamine hippurate]
- adverse effects [1]: without adverse effects

SMILES: O.O.O.O.O.O.O.O=S(=O)([O-])[O-].[Mg+2] [magnesium sulfate, magnesium sulfate (MgSO4×7H2O)]
- side effects [2]: without any side effects
- treatment outcome [2]: successful treatment

SMILES: [Mg+2] [magnesium]
- day of complete recovery [3, 10]: seventh
- day on which the general condition improved [3, 10]: third
- day of estrus after administration ([3]; cows that previously did not have estrus): seventh

SMILES: C1N2CN3CN1CN(C2)C3 [methenamine, methenamine (hexamethylenetetramine, C6H12N4)]
- solubility in water [4]: very soluble in water
- harm to the fetus [5]: have not revealed evidence of harm to the fetus
- harm to the fetus [6]: have not revealed evidence of harm to the fetus
- toxic effects [7]: without evidence of toxic effects
- treatment outcome ([8]; 20 grams per 500 kg, along with magnesium salts, other therapies unsuccessful): successful treatment
- time after administration at which condition started to improve and rumination began ([8]; parturient paresis (milk fever), ketosis (acetonomia)): fifteen
- toxic effects [9]: without evidence of toxic effects
